Data from US20050080037A1, “Methods for treating acute and overuse sprain and strain using hyaluronic acid” (priority 2003, published 2005).

Test system: patients with first or second degree lateral ankle sprain
Test: Efficacy of HA on ankle sprain following periarticular administration (clinical study 1: HA; study 2: celecoxib or naproxen)
Type: in vivo, human
Details: for Percentage increase in Patient's Global Assessment (improved by one or more grades) / Mean Patient's Satisfaction Assessment (10 point scale) / Mean Physician's Satisfaction Assessment (10 point scale): study 2, oral BID for 7 days; for Mean VAS Weight-bearing (100 mm): study 2, oral BID for 7 days (celecoxib 200 mg, naproxen 500 mg)
Description: The study was conducted in accordance with good clinical practice and in compliance with the requirement of the International Conference on Harmonization and Declaration of Helsinki. On Day 1 (within 48 hours of the injury), the patients were examined to assess whether they meet all the inclusion criteria and none of the exclusion criteria after signing the informed consent. The inclusion criteria were: 18 years and older, first or second degree lateral ankle […] within 48 hours of administration of study drug, reported moderate (45-60 mm) to severe (>60 mm) ankle pain on full weight bearing on the Patient's Assessment of Ankle Pain using a 100 mm Visual Analogue Scale (VAS). This scale was available for the duration of the clinical follow-up. Patients with bilateral ankle […] injury, third-degree […], or previous ankle […] within 6 months were excluded. Also excluded were patients who had recently used anti-inflammatory drugs, muscle relaxants, or certain classes of psychotropic medications that could confound the results. In addition, patients with sensitivity or allergy to NSAIDs or sulfonamides as well as patients with a history of serious GI, renal, or hepatic disease were excluded. Patients with other rheumatic diseases or a history of drug or alcohol abuse were also excluded. After enrollment, patients received periarticular injections of HA (study 1) or an inhibitor of cyclooxygenase-2 or a NSAID (study 2). […] Eight to ten mg of HA (0.8-1.0 ml of HA) was injected, without anesthetic (study 1). Oral treatments with an inhibitor of cyclooxygenase-2, celecoxib 200 mg BID, or with a NSAID, naproxen 500 mg BID, were done for 7 days (study 2). Clinical assessments were performed at baseline, and then before treatment on Day 4 and Day 8 (end of study). […] In Table 1, 7 patients received HA. In Table 2, 199 patients received celecoxib and 198 patients received naproxen.

Cc1ccc(-c2cc(C(F)(F)F)nn2-c2ccc(S(N)(=O)=O)cc2)cc1 [Celecoxib, celecoxib]
Percentage increase in Patient's Global Assessment (improved by one or more grades) (at day 4): 71%
Mean VAS Weight-bearing (100 mm) (at day 4): 31.9 mm
Mean Patient's Satisfaction Assessment (10 point scale) (at day 8): 8.8
Mean Physician's Satisfaction Assessment (10 point scale) (at day 8): 8.7
Percentage increase in Patient's Global Assessment (improved by one or more grades) (at day 8): 89%
Mean VAS Weight-bearing (100 mm) (at day 8): 15.0 mm

COc1ccc2cc([C@H](C)C(=O)O)ccc2c1 [Naproxen, naproxen]
Percentage increase in Patient's Global Assessment (improved by one or more grades) (at day 4): 72%
Mean VAS Weight-bearing (100 mm) (at day 4): 29.0 mm
Mean Patient's Satisfaction Assessment (10 point scale) (at day 8): 8.7
Mean Physician's Satisfaction Assessment (10 point scale) (at day 8): 8.6
Percentage increase in Patient's Global Assessment (improved by one or more grades) (at day 8): 90%
Mean VAS Weight-bearing (100 mm) (at day 8): 15.3 mm
